Assay results as given in patent US20170196878A1, “USE OF CBP/EP300 AND BET INHIBITORS FOR TREATMENT OF CANCER” (GENENTECH, INC., priority 2014, published 2017).

How the values were obtained:
[1] = target: T1, ZsGreen-bromodomain fusion protein (CBP) (Homo sapiens, UniProt Q92793); assay: Release of chromatin-bound ZsGreen-bromodomain fusion protein (CBP), high content imaging of nuclear foci; type: cell-based; settings: number of nuclear foci, read-out: Calculated EC50, release of chromatin-bound ZsGreen-CBP bromodomain fusion protein
T1 construct: expressed in transfected cells
Text: (§1) Release of chromatin-bound ZsGreen-bromodomain fusion proteins in the presence of compound was monitored with high content imaging. Each curve represents the indicated compound and the indicated fusion protein (BRD4 or CBP). The number of nuclear foci increases with compound target engagement (values are mean of four fields per well of two technical replicates, +SEM).

[2] = target: ZsGreen-bromodomain fusion protein (BRD4) (Homo sapiens, UniProt O60885); assay: Release of chromatin-bound ZsGreen-bromodomain fusion protein (BRD4), high content imaging of nuclear foci; settings: read-out: Calculated EC50, release of chromatin-bound ZsGreen-BRD4 bromodomain fusion protein, number of nuclear foci
Text: as §1

IRF4 mRNA expression = IRF4 mRNA expression in LP-1 cells by q-RTPCR; type: cell-based; settings: 6 h, q-RTPCR normalized to GAPDH
Method: FIG. 8. CBP/EP300 and BET bromodomain inhibition have distinct transcriptional effects. […] Expression values for replicate compound treated samples were normalized to paired DMSO controls to obtain log2 fold change values. […] Cells were treated with compound for 6 h, and mRNA expression was assessed with q-RTPCR and normalized to GAPDH. Values represent the mean of n=3, ±SEM. […] LP-1 cells were treated with a titration of CPI203 for 6 h, and IRF4 expression was determined by q-RTPCR and normalized to GAPDH. Values represent the mean of n=2, ±SEM.

T1 sequence (Q92793 1085-1192 limits assumed): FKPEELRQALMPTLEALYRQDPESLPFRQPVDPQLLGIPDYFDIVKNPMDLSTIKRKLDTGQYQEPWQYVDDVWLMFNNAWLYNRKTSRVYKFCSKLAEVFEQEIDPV

Row | SMILES | EC50 [1] | EC50 [2] | IRF4 mRNA expression (IRF4 mRNA expression)
1 | CCC(=O)N1CCOc2c(cc(-c3ccc(OC)c(OC)c3)cc2OC[C@H]2CCCN(C)C2)C1 [I-CBP112] | 2600 nM | > 20000 nM | –
2 | COc1ccc(CCc2nc3cc(-c4c(C)noc4C)ccc3n2C[C@H](C)N2CCOCC2)cc1Cl [SGC-CBP30] | – | 21500 nM | Dose-dependent inhibition
3 | Cc1sc2c(c1C)C(c1ccc(Cl)cc1)=N[C@@H](CC(N)=O)c1nnc(C)n1-2 [CPI203] | 1800 nM | 80 nM | does not directly regulate
